Our source for the survival rate and CD protein level values is patent publication US20130130986A1, “CANCER TREATMENT WITH RECOMBINANT VECTOR” (TOCAGEN INC., priority 2010, published 2013).

No end group written: not given here.

One experiment deals with Tu2449. The experiment is described as follows: Thymosin combination therapy in Tu2449/B6C3F1 glioma mouse model, survival. The class given is in vivo. As to conditions: TA1 200 μg/kg IP SID 28 days added to suboptimal Toca511 (E3) and standard BID 5-FC, FIG. 10. As to the method:
Experiments using Thymosin Alpha 1 were performed in conjunction with Toca 511 treatment in the Tu2449/B6C3F1 glioma mouse model (U. Pohle et al. Int J Oncol. 15:829-834 (1999); HM. Smilowitz et al. J. Neurosurg 106:652-659 2007). […] Thymosin Alpha 1 was obtained from Sigma Aldrich cat# T3641 and a stock solution made in sterile water at 400 μg/mL. TA1 (200 μg/kg, […]) was given IP starting on day 7 SID for 28 days.

A further experiment has as its system U-87 cells. Description: yCD2 versus wild type yCD protein level in infected cells (FIG. 4). The experiment is classed as cell-based, human. The following applies: infected U-87 cells.

As to “thymosin alpha 1 (Ac-SDAAVDTSSEITTKDLKEKKEVVEEAEN; listed as Homo sapiens) [Sigma Aldrich cat# T3641]”, the survival rate result with Tu2449 is recorded as “increased the survival rate to that of the optimal E5 dosing of Toca 511”.

B1: yCD2: human codon optimized yeast cytosine deaminase with substitutions A23L/V108I/I140L (protein, UniProt Q12178 1-158, looked up, variant A23L V108I I140L)
Cytosine deaminase: MVTGGMASKWDQKGMDIAYEEALLGYKEGGVPIGGCLINNKDGSVLGRGHNMRFQKGSATLHGEISTLENCGRLEGKVYKDTTLYTTLSPCDMCTGAIIMYGIPRCVIGENVNFKSKGEKYLQTRGHEVVVVDDERCKKLMKQFIDERPQDWFEDIGE
For B1, in the experiment on U-87 cells, the CD protein level result is “higher levels”.
